From PubChem BioAssay AID1272 (The Scripps Research Institute Molecular Screening Center, 2008)
Active and inactive are the calls of the source. No rule for the calls is given here.

Biological target: Neuropeptide Y receptor type 2 (Homo sapiens) (UniProt P49146)
Assay: IC50 of human NPY-Y2 blockers – cell-based, dose response (AID 1272)
Details: NPY-Y2 expressing cells, antagonist inhibition read-out

Sequence of Neuropeptide Y receptor type 2 (Homo sapiens) (P49146 whole entry, looked up): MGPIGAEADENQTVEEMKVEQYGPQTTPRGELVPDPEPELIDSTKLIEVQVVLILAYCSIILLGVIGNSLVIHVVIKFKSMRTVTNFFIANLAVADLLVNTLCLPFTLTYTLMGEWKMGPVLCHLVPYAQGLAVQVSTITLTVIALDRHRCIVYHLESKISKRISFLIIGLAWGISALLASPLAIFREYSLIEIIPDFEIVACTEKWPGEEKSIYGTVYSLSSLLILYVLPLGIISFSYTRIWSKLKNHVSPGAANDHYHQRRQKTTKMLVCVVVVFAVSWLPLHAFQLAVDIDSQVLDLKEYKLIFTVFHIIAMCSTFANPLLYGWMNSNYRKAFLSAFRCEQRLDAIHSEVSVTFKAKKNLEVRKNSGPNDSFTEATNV

Cc1cccc(CSCCNC(=O)COc2ccc(Cl)cc2)c1
IC50: < 35 µM (inactive)
